# In article PMC4850295, “Using a Genetically Encoded Sensor to Identify Inhibitors of Toxoplasma gondii Ca^2+ Signaling” (The Journal of Biological Chemistry, 2016):
# “And” between values parts separate entries of the source, which are not always exact repeats. Equal entries are not always repeated.
# Tested on: T1, GCaMP5-expressing T. gondii
# T1 construct: whole extracellular parasites expressing GCaMP5 Ca2+ sensor
# Set-up: species or system GCaMP5-expressing Toxoplasma gondii, extracellular; GCaMP5 fluorescence (cytosolic Ca2+) after 100 uM zaprinast in compound-pretreated extracellular parasites, background-subtracted, relative to zaprinast alone
# Details: 100 uM zaprinast stimulation, 10 min pretreatment, mean of two replicates, 0.23 h, 10 µM
# Method in brief: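 Extracellular GCaMP5-expressing parasites in Ringer's solution were pretreated with compounds (single 10 μM dose, two biological replicates) for 10 min, then stimulated with 100 μM zaprinast at 37 °C for 4 min. Fluorescence read at 485/525 nm, basal subtracted, expressed as fold change relative to zaprinast-only parasites.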
row,Structure (SMILES),fold change in fluorescence relative to zaprinast alone
1,CS(=O)(=O)CCNCc1ccc(-c2ccc3ncnc(Nc4ccc(OCc5ccccc5)c(Cl)c4)c3c2)o1 [GW574783B],0.7755 and 0.8833

# Same assay, conditions: 100 uM zaprinast stimulation; 10 min pretreatment; mean of two replicates; 0.23 h
row,Structure (SMILES),fold change in fluorescence relative to zaprinast alone
1,CC(=O)Nc1ccc(COc2ccc(Nc3ccnc4cc(-c5ccccn5)ccc34)cc2)cc1 [GW440148A],1.657
2,Cn1cc(C=C2C(=O)Nc3cccnc32)c2ccccc21 [GW441756X],1.234
3,Cc1cc(O)cc(C)c1/C=C/c1cncc(-c2nn[nH]n2)c1 [GW441806A],1.117
4,CNC(=O)c1cncc(/C=C/c2c(C)cccc2C)c1 [GW445012X],1.157
5,CNC(=O)c1cncc(/C=C/c2c(Cl)cccc2Cl)c1 [GW445014X],1.122
6,CNC(=O)c1cncc(/C=C/c2ccccc2C)c1 [GW445015X],1.264
7,CCc1cccc(CC)c1/C=C/c1cncc(C(=O)NC)c1 [GW450241X],1.076
8,Cc1ccn2nc(-c3ccc(F)cc3)c(-c3ccncc3)c2c1 [GW457859A],0.07245
9,Cc1cc(-c2ccco2)cc(C)c1/C=C/c1cncc(-c2nn[nH]n2)c1 [GW458344A],1.482
10,CS(=O)(=O)CCNCc1ccc(-c2ccc3ncnc(Nc4ccc(OCc5ccccc5)cc4)c3c2)o1 [GW458787A],0.4223
11,CS(=O)(=O)CCNCc1nc(-c2ccc3ncnc(Nc4ccc(F)c(Cl)c4)c3c2)cs1 [GW461104B],0.6524
12,Cc1ccc2c(-c3ccncc3)c(-c3ccc(F)cc3)nn2c1 [GW461484A],0.2133
13,Cc1cccc2c(-c3ccncc3)c(-c3ccc(F)cc3)nn12 [GW461487A],0.2322
14,Cc1c(O)cccc1Nc1ccnc2ccc(C(F)(F)F)cc12 [GW466413A],1.009
15,COc1cccc2c(-c3ccncc3)c(-c3ccc(F)cc3)nn12 [GW468513X],0.06975
16,Fc1ccc(-c2nn3cccc(F)c3c2-c2ccncc2)cc1 [GW475620X],0.2984
17,CC(C)c1ccc(O)cc1Nc1ccnc2ccc(C(F)(F)F)cc12 [GW482059X],1.143
18,CC(=O)c1c(-c2ccncc2)[nH]c(-c2ccncc2)c1C [GW493036X],1.057
19,Oc1cccc(Nc2ccnc3cc(-c4ccncc4)ccc23)c1 [GW494601A],1.032
20,COc1cc(Nc2ccnc3cc(-c4ccncc4)ccc23)cc(OC)c1OC [GW494610A],0.2498
21,Cc1ccc(C(=O)Nc2ccc(Nc3ccnc4cc(-c5nccs5)ccc34)cc2O)cc1 [GW494702A],0.9828
22,Cc1cc(NCC(c2ccccc2)c2ccccc2)nc(NCc2ccc(C(F)(F)F)cc2)n1 [GW497681X],1.268
23,COc1cc(C=NNc2ncnc3c2cnn3-c2ccccc2)ccc1O [GW513184X],0.5493
24,Fc1ccc(-c2nn3c(OCC(F)(F)F)cccc3c2-c2ccncc2)cc1 [GW514784X],0.04564
25,CSc1cccc2c(-c3ccncn3)c(-c3ccc(F)cc3)nn12 [GW514786X],0.1155
26,Cc1cccc2c(-c3ccncn3)c(-c3ccc(F)cc3)nn12 [GW515532X],0.6118

row,Structure (SMILES),fold change in fluorescence relative to zaprinast alone
1,Nc1nc(-c2ccccn2)c(-c2ccnc3ccccc23)s1 [GW548057X],0.7803
2,c1ccc(Nc2ncc(-c3ccccc3)o2)cc1 [GW549390X],1.88
3,Fc1cc(Cl)ccc1Nc1ccnc2cc(I)ccc12 [GW551191X],1.044
4,Oc1cc(Nc2ccnc3cc(I)ccc23)ccc1F [GW552771X],0.9648
5,Nc1n[nH]c2nnc(-c3ccccc3)c(-c3ccccc3)c12 [GW554060X],1.19
6,Cc1ccc(O)cc1Nc1ccnc2cc(-c3ccc(CN4CCCCC4)o3)ccc12 [GW557777X],0.8105
7,Cc1ccc(O)cc1Nc1ccnc2ccc(S(C)(=O)=O)cc12 [GW559768X],1.199
8,Fc1cc(Cl)ccc1Nc1ccnc2cc(-c3ccc(CN4CCSCC4)o3)ccc12 [GW560106X],0.6773
9,Fc1cc(Cl)ccc1Nc1ccnc2cc(-c3ccc(CN4CCOCC4)o3)ccc12 [GW560109X],0.545
10,Fc1cc(Cl)ccc1Nc1ccnc2cc(-c3ccc(CN4CCCCC4)o3)ccc12 [GW560116X],0.6823
11,N#Cc1ccc2c(-c3ccnc(NC4CC4)n3)c(-c3ccc(F)cc3)nn2c1 [GW561436X],0.8796
12,CS(=O)(=O)CCNCc1coc(-c2ccc3ncnc(Nc4ccc(OCc5ccccc5)cc4)c3c2)c1 [GW566221B],0.9966
13,CN1CCN(Cc2ccc(-c3ccc4c(Nc5ccc(Oc6ccccn6)cc5)ccnc4c3)o2)CC1 [GW567140X],1.304
14,c1ccc(Oc2ccc(Nc3ccnc4cc(-c5ccc(CN6CCNCC6)o5)ccc34)cc2)nc1 [GW567142A],0.8742
15,c1ccc(Oc2ccc(Nc3ccnc4cc(-c5ccc(CN6CCCCC6)o5)ccc34)cc2)nc1 [GW567143X],0.8249
16,c1ccc(Oc2ccc(Nc3ccnc4cc(-c5ccc(CNCCN6CCOCC6)o5)ccc34)cc2)nc1 [GW567145X],0.643
17,CN(C)Cc1ccc(-c2ccc3c(Nc4ccc(Oc5ccccn5)cc4)ccnc3c2)o1 [GW567148X],1.129
18,Nc1nccc(-c2c(-c3ccc(F)cc3)nn3cc(C(F)(F)F)ccc23)n1 [GW568326X],1.261
19,OCCCNc1nccc(-c2c(-c3ccc(F)cc3)nn3cc(C(F)(F)F)ccc23)n1 [GW569293X],0.8575
20,CS(=O)(=O)CCNCc1nc(-c2ccc3ncnc(Nc4ccc(OCc5cccc(C(F)(F)F)c5)cc4)c3c2)cs1 [GW569530A],1.148
21,CCN(CC)S(=O)(=O)c1ccc(OC)c(Nc2ncc(-c3ccccc3)o2)c1 [GW572401X],1.034
22,N#Cc1c(NC(=O)c2ccccc2F)sc2c1CCCC2 [GW572738X],1.241
23,CS(=O)(=O)CCNCc1ccc(-c2ccc3ncnc(Nc4ccc(OCc5ccccc5)c(C(F)(F)F)c4)c3c2)o1 [GW574782A],0.7605
24,COc1ccc(Nc2ncc(-c3ccccc3)o2)cc1OC [GW575533A],1.197
25,Cc1ccc(Nc2ccnc(Nc3cccc(C(N)=O)c3)n2)cc1O [GW575808A],1.342
26,CS(=O)(=O)CCNCc1ccc(-c2ccc3ncnc(Nc4ccc(OCc5cccc(F)c5)c(C(F)(F)F)c4)c3c2)o1 [GW576484X],0.5624

# Same assay, conditions: 0.23 h, 10 µM
row,Structure (SMILES),% of control remaining
1,NS(=O)(=O)c1ccc(Nc2ncc(-c3ccccc3)o2)cc1 [GW572399X],1.225
